Experiment: Binding affinity was determined against Opioid receptor delta 1 obtained from guinea pig brain membranes using [3H]naltrindole as radioligand

With C[C@H]1C2Cc3ccc(N)cc3[C@@]1(C)CCN2CC1CC1 [3-Cyclopropylmethyl-6,11-dimethyl-1,2,3,4,5,6-hexahydro-2,6-methano-benzo[d]azocin-8-ylamine] the Ki was 12 nM.
